According to US9271969B2, “Compounds as inhibitors of diacylglycerol O-acyltransferase type 1 enzyme” (KAINOS MEDICINE, INC., priority 2012, dated 2016):

Tests used:
human DGAT1 [1] = molecular target: T1, human DGAT1 (Homo sapiens (Human), UniProt O75907); assay: biochemical
Method: For this assay, a source of DGAT1 was needed. In that regard, a commercially available plasmid for expression of DGAT1 (e.g., pCMV6-recombinant human DGAT1 plasmid) was transfected for 24 hours in Hep3B cells. After transfection of the plasmid, human DGAT-1 expression was analyzed by Western blot or RT-PCR using whole cell extracts. […] Human and mouse DGAT activity were determined as follows.
The plates were sealed, incubated overnight and counted the next morning on a liquid scintillation counter and luminometer.
DGAT1 catalyzes the transfer of the radiolabelled decanoyl group onto the sn-3 position of didecanoyl glycerol. The resultant radiolabeled tridecanoyl glycerol (tricaprin) preferentially binds to the hydrophobic coating on the phospholipid-coated radiometric assay plate. The proximity of the radiolabeled product to the solid scintillant incorporated into the bottom of the radiometric assay plate induced for release from the scintillant, which was measured in the liquid scintillation counter and luminometer.
IC50 values of the compounds were determined from concentration-dependent inhibition curves by using commercially available software.

mouse DGAT1 = mouse DGAT1 (Mus musculus (Mouse), UniProt Q9Z2A7); assay: Radiometric DGAT1 assay, mouse liver microsomes; assay type: biochemical; details: mouse liver microsomes having mouse DGAT1 activity
From the text: (§1) A second source of DGAT1 activity was human or mouse liver microsomes.

human DGAT1 [2] = molecular target: T1, human DGAT1; assay: Radiometric DGAT1 assay, human liver microsomes; assay type: biochemical; details: Source of human DGAT activity B = human liver microsomes
From the text: as §1

Sequence of mouse DGAT1 (Q9Z2A7 whole entry): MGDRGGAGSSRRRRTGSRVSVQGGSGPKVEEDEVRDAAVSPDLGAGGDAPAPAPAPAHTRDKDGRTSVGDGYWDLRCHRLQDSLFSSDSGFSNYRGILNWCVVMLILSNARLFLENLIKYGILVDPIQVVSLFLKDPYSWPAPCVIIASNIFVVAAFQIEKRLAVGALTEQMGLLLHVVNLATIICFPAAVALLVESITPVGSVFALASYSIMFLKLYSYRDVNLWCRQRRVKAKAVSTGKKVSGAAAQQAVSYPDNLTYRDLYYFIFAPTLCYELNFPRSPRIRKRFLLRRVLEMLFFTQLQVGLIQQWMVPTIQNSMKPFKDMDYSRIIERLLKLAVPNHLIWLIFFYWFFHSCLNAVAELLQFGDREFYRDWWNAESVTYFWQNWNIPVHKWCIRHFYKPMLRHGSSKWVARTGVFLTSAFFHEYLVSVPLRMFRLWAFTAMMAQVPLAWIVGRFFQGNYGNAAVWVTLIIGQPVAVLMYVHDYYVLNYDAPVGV
T1 sequence (O75907 whole entry): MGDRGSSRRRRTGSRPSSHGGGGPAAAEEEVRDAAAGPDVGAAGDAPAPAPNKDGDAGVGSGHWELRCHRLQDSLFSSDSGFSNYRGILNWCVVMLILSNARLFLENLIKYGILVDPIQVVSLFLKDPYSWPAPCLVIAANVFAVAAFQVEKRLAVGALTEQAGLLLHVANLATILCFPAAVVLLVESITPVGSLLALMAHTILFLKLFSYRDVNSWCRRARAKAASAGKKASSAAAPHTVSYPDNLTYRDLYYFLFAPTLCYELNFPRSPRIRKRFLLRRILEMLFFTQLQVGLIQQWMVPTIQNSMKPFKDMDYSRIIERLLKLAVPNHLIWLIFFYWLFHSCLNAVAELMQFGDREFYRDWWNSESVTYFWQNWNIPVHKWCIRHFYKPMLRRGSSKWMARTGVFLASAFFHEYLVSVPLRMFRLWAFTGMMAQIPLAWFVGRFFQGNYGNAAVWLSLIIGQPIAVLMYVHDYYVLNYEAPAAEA

IC50 (human DGAT1 [1])	IC50 (mouse DGAT1)	IC50 (human DGAT1 [2])	SMILES
< 10 nM	< 50 nM	–	O=C(O)C[C@H]1CC[C@H](c2ccc(-c3ccc4nc(C(=O)NCc5ccc(OC(F)(F)F)cc5)cn4c3)cc2)CC1 [Compound 1, 2-((1r,4r)-4-(4-(2-((4-(Trifluoromethoxy)benzyl)carbamoyl)imidazo[1,2-a]pyridin-6-yl)phenyl)cyclohexyl)acetic acid]
< 10 nM	< 200 nM	–	O=C(O)C[C@H]1CC[C@H](c2ccc(-c3ccc4nc(C(=O)Nc5ccc(C(F)(F)F)cc5)cn4c3)cc2)CC1 [Compound 2, 2-((1r,4r)-4-(4-(2-((4-(Trifluoromethyl)phenyl)carbamoyl)imidazo[1,2-a]pyridin-6-yl)phenyl)-cyclohexyl)acetic acid]
< 10 nM	< 75 nM	–	O=C(O)C[C@H]1CC[C@H](c2ccc(-c3ccc4nc(C(=O)Nc5ccc(OC(F)(F)F)cc5)cn4c3)cc2)CC1 [Compound 3, 2-((1r,4r)-4-(4-(2-((4-(Trifluoromethoxy)phenyl)carbamoyl)imidazo[1,2-a]pyridin-6-yl)-phenyl)cyclohexyl)acetic acid]
< 50 nM	< 50 nM	–	O=C(O)C[C@H]1CC[C@H](c2ccc(-c3ccc4nc(C(=O)NCc5cc(OC(F)(F)F)ccc5F)cn4c3)cc2)CC1 [Compound 9, 2-((1r,4r)-4-(4-(2-((2-Fluoro-5-(trifluoromethoxy)benzyl)carbamoyl)imidazo[1,2-a]pyridin-6-yl)phenyl)cyclohexyl)acetic acid]
< 75 nM	< 75 nM	–	O=C(O)C[C@H]1CC[C@H](c2ccc(-c3ccc4nc(C(=O)NCc5ccc(F)c(OC(F)(F)F)c5)cn4c3)cc2)CC1 [Compound 10, 2-((1r,4r)-4-(4-(2-((4-Fluoro-3-(trifluoromethoxy)benzyl)carbamoyl)imidazo[1,2-a]pyridin-6-yl)phenyl)cyclohexyl)acetic acid]
< 50 nM	< 75 nM	–	O=C(O)C[C@H]1CC[C@H](c2ccc(-c3ccc4nc(C(=O)NCc5ccc(C(F)(F)F)c(F)c5)cn4c3)cc2)CC1 [Compound 11, 2-((1r,4r)-4-(4-(2-((3-Fluoro-4-(trifluoromethyl)benzyl)carbamoyl)imidazo[1,2-a]pyridin-6-yl)phenyl)cyclohexyl)acetic acid]
< 25 nM	< 150 nM	–	COc1ccc(CNC(=O)c2cn3cc(-c4ccc([C@H]5CC[C@H](CC(=O)O)CC5)cc4)ccc3n2)cc1 [Compound 12, 2-((1r,4r)-4-(4-(2-((4-Methoxybenzyl)carbamoyl)imidazo[1,2-a]pyridin-6-yl)-phenyl)cyclohexyl)acetic acid]
< 10 nM	< 1 nM	–	COc1ccc(OC(F)(F)F)cc1CNC(=O)c1cn2cc(-c3ccc([C@H]4CC[C@H](CC(=O)O)CC4)cc3)ccc2n1 [Compound 18, 2-((1r,4r)-4-(4-(2-((2-Methoxy-5-(trifluoromethoxy)benzyl)carbamoyl)imidazo[1,2-a]-pyridin-6-yl)phenyl)cyclohexyl)acetic acid]
< 10 nM	< 1 nM	–	CC(C)c1ccc(CNC(=O)c2cn3cc(-c4ccc([C@H]5CC[C@H](CC(=O)O)CC5)cc4)ccc3n2)cc1 [Compound 19]
< 1 nM	< 1 nM	–	Cc1ccccc1NC(=O)c1cn2cc(-c3ccc([C@H]4CC[C@H](CC(=O)O)CC4)cc3)ccc2n1 [Compound 32, 2-((1r,4r)-4-(4-(2-(o-Tolylcarbamoyl)imidazo[1,2-a]pyridin-6-yl)phenyl)cyclohexyl)acetic acid]
< 250 nM	< 750 nM	–	O=C(O)C[C@H]1CC[C@H](c2ccc(-c3ccc4nc(C(=O)Nc5ccc(F)cc5C(F)(F)F)cn4c3)cc2)CC1 [Compound 33, 2-((1r,4r)-4-(4-(2-((4-Fluoro-2-(trifluoromethyl)phenyl)carbamoyl)imidazo[1,2-a]pyridin-6-yl)phenyl)cyclohexyl)acetic acid]
< 150 nM	< 450 nM	–	O=C(O)C[C@H]1CC[C@H](c2ccc(-c3ccc4nc(C(=O)Nc5ccccc5C(F)(F)F)cn4c3)cc2)CC1 [Compound 34, 2-((1r,4r)-4-(4-(2-((2-(Trifluoromethyl)phenyl)carbamoyl)imidazo[1,2-a]pyridin-6-yl)phenyl)cyclohexyl)acetic acid]
< 200 nM	< 550 nM	–	O=C(O)C[C@H]1CC[C@H](c2ccc(-c3ccc4nc(C(=O)Nc5ccccc5F)cn4c3)cc2)CC1 [Compound 35, 2-((1r,4r)-4-(4-(2-((2-Fluorophenyl)carbamoyl)imidazo[1,2-a]pyridin-6-yl)phenyl)cyclohexyl)acetic acid]
< 100 nM	< 75 nM	–	COc1ccccc1NC(=O)c1cn2cc(-c3ccc([C@H]4CC[C@H](CC(=O)O)CC4)cc3)ccc2n1 [Compound 36, 2-((1r,4r)-4-(4-(2-((2-Methoxyphenyl)carbamoyl)imidazo[1,2-a]pyridin-6-yl)phenyl)cyclohexyl)acetic acid]
< 10 nM	< 50 nM	–	Cc1ccccc1CNC(=O)c1cn2cc(-c3ccc([C@H]4CC[C@H](CC(=O)O)CC4)cc3)ccc2n1 [Compound 37, 2-((1r,4r)-4-(4-(2-((2-Methylbenzyl)carbamoyl)imidazo[1,2-a]pyridin-6-yl)phenyl)cyclohexyl)acetic acid]
< 200 nM	< 1 nM	–	Cc1cccc(C)c1NC(=O)c1cn2cc(-c3ccc([C@H]4CC[C@H](CC(=O)O)CC4)cc3)ccc2n1 [Compound 38, 2-((1r,4r)-4-(4-(2-((2,6-Dimethylphenyl)carbamoyl)imidazo[1,2-a]pyridin-6-yl)phenyl)cyclohexyl)acetic acid]
< 10 nM	< 1 nM	–	O=C(O)C[C@H]1CC[C@H](c2ccc(-c3ccc4nc(C(=O)Nc5cc(F)ccc5F)cn4c3)cc2)CC1 [Compound 39, 2-((1r,4r)-4-(4-(2-((2,5-Difluorophenyl)carbamoyl)imidazo[1,2-a]pyridin-6-yl)phenyl)cyclohexyl)acetic acid]
< 1 nM	< 50 nM	–	O=C(O)C[C@H]1CC[C@H](c2ccc(-c3ccc4nc(C(=O)Nc5cc(F)c(F)c(F)c5)cn4c3)cc2)CC1 [Compound 40, 2-((1r,4r)-4-(4-(2-((3,4,5-Trifluorophenyl)carbamoyl)imidazo[1,2-a]pyridin-6-yl)phenyl)cyclohexyl)acetic acid]
< 10 nM	< 150 nM	–	COc1ccc(CNC(=O)c2cn3cc(-c4ccc([C@H]5CC[C@H](CC(=O)O)CC5)cc4)sc3n2)cc1 [Compound 57, 2-((1r,4r)-4-(4-(6-((4-Methoxybenzyl)carbamoyl)imidazo[2,1-b]thiazol-2-yl)phenyl)cyclo-hexyl)acetic acid]
< 100 nM	< 325 nM	–	O=C(O)C[C@H]1CC[C@H](c2ccc(-c3cn4cc(C(=O)NCc5ccc6c(c5)OCO6)nc4s3)cc2)CC1 [Compound 58, 2-((1r,4r)-4-(4-(6-((Benzo[d][1,3]dioxol-5-ylmethyl)carbamoyl)imidazo[2,1-b]thiazol-2-yl)-phenyl)cyclohexyl)acetic acid]
< 25 nM	< 25 nM	–	O=C(O)C[C@H]1CC[C@H](c2ccc(-c3cn4cc(C(=O)NCc5ccc(F)c(OC(F)(F)F)c5)nc4s3)cc2)CC1 [Compound 59, 2-((1r,4r)-4-(4-(6-((4-Fluoro-3-(trifluoromethoxy)benzyl)carbamoyl)imidazo[2,1-b]thiazol-2-yl)phenyl)cyclohexyl)acetic acid]
–	< 50 nM	< 10 nM	CC(C)(C(=O)O)[C@H]1CC[C@H](c2ccc(-c3ccc4nc(C(=O)NCc5ccc(OC(F)(F)F)cc5)cn4c3)cc2)CC1 [Compound 66, 2-Methyl-2-((1r,4r)-4-(4-(2-((4-(trifluoromethoxy)benzyl)carbamoyl)imidazo[1,2-a]pyridin-6-yl)phenyl)cyclohexyl)propanoic acid]
–	< 50 nM	< 25 nM	Cc1cccc(Cl)c1CNC(=O)c1cn2cc(-c3ccc(C4CCC(C(C)(C)C(=O)O)CC4)cc3)ccc2n1 (stereo not shown) [Compound 67, 2-((1s,4s)-4-(4-(2-((2-Chloro-6-methylbenzyl)carbamoyl)imidazo[1,2-a]pyridin-6-yl)phenyl)cyclohexyl)-2-methylpropanoic acid]
